This note sets out measurements from PubChem BioAssay (NCI).

Structures are written as SMILES.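 Method: 48-hour compound exposure of cells in 96-well plates, five concentrations, linear interpolation of endpoints. GI50 = concentration required for 50% inhibition of growth. TGI: concentration producing complete growth inhibition.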

Among the test systems are DMS 273 small cell lung; ACHN renal; SK-OV-3 ovarian; SK-MEL-28 melanoma; KM12 colon; HL-60(TB) leukemia; UO-31 renal; HCC-2998 colon; BT-549 breast.
What all share (experiment): NCI tumour cell line growth inhibition, 48 h

Consider `C=CCNC(=O)N(CCCCC(NC(C)=O)C(=O)NCc1ccccc1)Cc1ccccc1` (stereo unspecified), for which the TGI in the assay with DMS 273 small cell lung, in the assay on ACHN renal, in the assay with SK-OV-3 ovarian, in the assay on SK-MEL-28 melanoma, with KM12 colon and in the assay on HL-60(TB) leukemia was more than 100 µM each time. Also, in the assay on UO-31 renal, the TGI is more than 100 µM.
For the molecule `N.N.N.N.N.NC(=O)c1nn[n-]n1.[Cl-].[Co+3]`, the GI50 was more than 100 µM in the assay with DMS 273 small cell lung; more than 100 µM with ACHN renal; more than 100 µM in the assay on SK-OV-3 ovarian; more than 100 µM in the assay with SK-MEL-28 melanoma; more than 100 µM with HCC-2998 colon; more than 100000 nM in the assay on KM12 colon. For the same molecule, the GI50 in the assay with HL-60(TB) leukemia was more than 100000 nM; in the assay with UO-31 renal, more than 100 µM. The TGI in the assay with DMS 273 small cell lung, with ACHN renal, with SK-OV-3 ovarian, with SK-MEL-28 melanoma, in the assay with HCC-2998 colon and with KM12 colon was more than 100 µM each time. Besides, the TGI in the assay on HL-60(TB) leukemia and in the assay on UO-31 renal was more than 100 µM each time.
For the molecule `COC(=O)CC1C[C@H](C#N)N(C(=O)c2ccccc2)C[C@@H]1CC[N+](=O)[O-]` (stereo partly specified), the TGI with DMS 273 small cell lung, in the assay on ACHN renal, in the assay on SK-OV-3 ovarian, in the assay with SK-MEL-28 melanoma, in the assay on HCC-2998 colon and in the assay with KM12 colon was more than 100 µM throughout. In addition, the TGI in the assay with HL-60(TB) leukemia and with UO-31 renal was more than 100 µM throughout.
In the case of `CC1=C(c2ccccc2)C(c2ccccc2)=C(c2ccccc2)C2(c3ccccc3)C(=O)C(C)CN12` (stereo unspecified), the TGI with DMS 273 small cell lung, with ACHN renal, with SK-OV-3 ovarian, with SK-MEL-28 melanoma, in the assay on HCC-2998 colon and in the assay with KM12 colon was more than 100 µM each time. Also, the TGI in the assay on UO-31 renal is more than 100 µM.
Regarding `CCCCCCCCCCCc1nnc(N)o1`, the TGI in the assay on DMS 273 small cell lung, with ACHN renal, in the assay with SK-OV-3 ovarian, in the assay on SK-MEL-28 melanoma, with HCC-2998 colon and in the assay on KM12 colon was more than 100 µM each time. Besides, the TGI in the assay with HL-60(TB) leukemia is more than 100 µM; in the assay with UO-31 renal, 38.3 µM.
Turning to `O=c1[nH]nnc2c1ncn2C1OC(CO)C(O)C1O` (stereo unspecified), the GI50 was 1.8 µM in the assay on ACHN renal; 0.881 µM with SK-OV-3 ovarian; 68.3 µM with SK-MEL-28 melanoma; 4.12 µM in the assay with HCC-2998 colon; more than 100 µM in the assay on BT-549 breast; 11800 nM with KM12 colon. The values for the GI50 with HL-60(TB) leukemia and in the assay with UO-31 renal were 1390 nM and 3.18 µM, respectively. Also, the TGI in the assay on ACHN renal, in the assay with SK-OV-3 ovarian, in the assay on SK-MEL-28 melanoma, in the assay with HCC-2998 colon, with BT-549 breast and in the assay with KM12 colon was more than 100 µM each time. Besides, the values for the TGI in the assay on HL-60(TB) leukemia and with UO-31 renal were 83.3 µM and more than 100 µM, respectively.
As to `COc1ccc(C(=S)N2CCN(c3cccc(C)c3)CC2)cc1OC`, the GI50 was 5.92 µM in the assay with ACHN renal; 7.24 µM in the assay on SK-OV-3 ovarian; 5.42 µM in the assay on SK-MEL-28 melanoma; 5.41 µM with HCC-2998 colon; 6.31 µM in the assay on BT-549 breast; 2820 nM in the assay with KM12 colon. In addition, the GI50 with HL-60(TB) leukemia was 1830 nM; in the assay with UO-31 renal, 4.37 µM. The TGI with ACHN renal, with SK-OV-3 ovarian, in the assay with SK-MEL-28 melanoma, with HCC-2998 colon, with BT-549 breast and with KM12 colon was more than 100 µM each time. For the same molecule, the TGI in the assay with HL-60(TB) leukemia and with UO-31 renal was more than 100 µM each time.
As for `CCOC(=O)N1CCN(/[N+]([O-])=N/Oc2ccc([N+](=O)[O-])cc2[N+](=O)[O-])CC1`, the GI50 in the assay on ACHN renal is 0.479 µM; in the assay on SK-OV-3 ovarian, 5.61 µM; in the assay with SK-MEL-28 melanoma, 1.82 µM; in the assay with HCC-2998 colon, 1.12 µM; in the assay on BT-549 breast, 2.62 µM; in the assay on KM12 colon, 1780 nM. For the same molecule, the GI50 is 76.1 nM with HL-60(TB) leukemia and 10.6 µM with UO-31 renal. For the same molecule, the TGI turned out to be 1.37 µM in the assay on ACHN renal; 18.4 µM with SK-OV-3 ovarian; 6.69 µM in the assay on SK-MEL-28 melanoma; 2.33 µM in the assay with HCC-2998 colon; 18.6 µM in the assay with BT-549 breast; 8.56 µM in the assay with KM12 colon. Further, the TGI with HL-60(TB) leukemia worked out at 0.201 µM; in the assay on UO-31 renal, 23.3 µM.
Take `CNC(=O)Nc1nc2ccc([N+](=O)[O-])cc2[nH]1`: the TGI with ACHN renal, in the assay with SK-OV-3 ovarian, with SK-MEL-28 melanoma, in the assay with HCC-2998 colon, with BT-549 breast and in the assay on KM12 colon was more than 100 µM each time. Besides, the TGI with HL-60(TB) leukemia and with UO-31 renal was more than 100 µM throughout.
In the case of `N#Cc1ccc(OCc2nc(N)nc(N)c2-c2ccc(Cl)c(Cl)c2)cc1`, the GI50 in the assay with ACHN renal is 0.8 µM; in the assay on SK-OV-3 ovarian, 4.72 µM; in the assay with SK-MEL-28 melanoma, 4.39 µM; in the assay with HCC-2998 colon, 3.19 µM; with BT-549 breast, 9.98 µM; in the assay on KM12 colon, 2850 nM. Further, the GI50 in the assay with HL-60(TB) leukemia is 554 nM; in the assay with UO-31 renal it was 3.79 µM. For the same molecule, the TGI in the assay with ACHN renal was more than 100 µM; in the assay with SK-OV-3 ovarian, more than 100 µM; with SK-MEL-28 melanoma, 40.2 µM; in the assay with HCC-2998 colon, more than 100 µM; in the assay with BT-549 breast it was more than 100 µM; in the assay with KM12 colon it was 84.5 µM. The TGI with HL-60(TB) leukemia was 24.4 µM; in the assay on UO-31 renal it was more than 100 µM.
For the molecule `Cc1nnn[n-]1.N.N.N.N.N.[Cl-].[Co+3]`, the GI50 was more than 100 µM in the assay with DMS 273 small cell lung; more than 100 µM in the assay on ACHN renal; more than 100 µM in the assay on SK-OV-3 ovarian; more than 100 µM in the assay with SK-MEL-28 melanoma; more than 100 µM with HCC-2998 colon; more than 100000 nM in the assay on KM12 colon. Also, the values for the GI50 with HL-60(TB) leukemia and with UO-31 renal were more than 100000 nM and more than 100 µM, respectively. Moreover, the TGI in the assay with DMS 273 small cell lung, in the assay on ACHN renal, in the assay with SK-OV-3 ovarian, with SK-MEL-28 melanoma, in the assay with HCC-2998 colon and with KM12 colon was more than 100 µM in each case. Besides, the TGI with HL-60(TB) leukemia and with UO-31 renal was more than 100 µM in each case.
Take `O=C(Oc1cccc(F)c1OC(=O)c1cccc(O)c1)c1cccc(O)c1`: the GI50 was 23.6 µM in the assay with ACHN renal; 84 µM in the assay with SK-OV-3 ovarian; 80.1 µM in the assay with SK-MEL-28 melanoma; 27.5 µM with HCC-2998 colon; 24.4 µM in the assay on BT-549 breast; 23100 nM in the assay with KM12 colon. The GI50 with HL-60(TB) leukemia is 4280 nM; with UO-31 renal, 5.56 µM. For the same molecule, the TGI in the assay with ACHN renal is more than 100 µM; with SK-OV-3 ovarian, more than 100 µM; in the assay with SK-MEL-28 melanoma it was more than 100 µM; with HCC-2998 colon, 84.5 µM; in the assay with BT-549 breast, more than 100 µM; with KM12 colon it was more than 100 µM. In addition, the results for the TGI with HL-60(TB) leukemia and with UO-31 renal were 72.3 µM and more than 100 µM, respectively.
As to `C/C=C(\C)C(=O)NC1=CC[C@@]2(C)C(=CCC3C2CC[C@@]2(C)C3CC[C@@H]2C(C)N(C)C)C1=O` (stereo partly specified), the GI50 was 8.03 µM in the assay with ACHN renal; 11.6 µM in the assay with SK-OV-3 ovarian; 1.72 µM with SK-MEL-28 melanoma; 4.01 µM in the assay on HCC-2998 colon; 3.39 µM with BT-549 breast; 2850 nM in the assay with KM12 colon. Also, the GI50 was 1420 nM in the assay on HL-60(TB) leukemia and 1.44 µM with UO-31 renal. The TGI in the assay with ACHN renal was more than 47 µM; in the assay on SK-OV-3 ovarian, 29.8 µM; with SK-MEL-28 melanoma, 3.24 µM; in the assay with HCC-2998 colon, 15.6 µM; in the assay on BT-549 breast, 15.8 µM; in the assay on KM12 colon, 13.7 µM. The TGI in the assay with HL-60(TB) leukemia was 5.2 µM; in the assay on UO-31 renal, 3.02 µM.
As for `C=CCN=c1sc2c(n1NC(=O)c1cc3ccc1CCc1ccc(cc1)CC3)C(=O)c1ccccc1C2=O`, the GI50 in the assay on ACHN renal is 1.42 µM; in the assay on SK-OV-3 ovarian, 3.7 µM; with SK-MEL-28 melanoma it was 1.87 µM; in the assay with HCC-2998 colon, 1.62 µM; in the assay with BT-549 breast it was 1.53 µM; in the assay with KM12 colon, 2680 nM. For the same molecule, the values for the GI50 in the assay with HL-60(TB) leukemia and in the assay with UO-31 renal were 395 nM and 0.496 µM, respectively. The TGI came out at 2.91 µM in the assay on ACHN renal; 23.4 µM in the assay with SK-OV-3 ovarian; 3.35 µM with SK-MEL-28 melanoma; 3.14 µM with HCC-2998 colon; 2.91 µM in the assay on BT-549 breast; 8.8 µM in the assay with KM12 colon. For the same molecule, the TGI was 3.26 µM with HL-60(TB) leukemia and 2.09 µM in the assay on UO-31 renal.
For the molecule `O=C(Nc1ccc([As](=O)(O)O)cc1)Nc1cccc(Cl)c1Cl`, the TGI in the assay with ACHN renal, in the assay with SK-OV-3 ovarian, with SK-MEL-28 melanoma, in the assay on HCC-2998 colon, in the assay with BT-549 breast and with KM12 colon was more than 100 µM each time. For the same molecule, the TGI in the assay on HL-60(TB) leukemia and in the assay with UO-31 renal was more than 100 µM throughout.
Regarding `CC(=O)NC1C(OC[C@@H](CC(=O)N[C@@H](CC(=O)O)CC(=O)N[C@H](CC(=O)N[C@@H](CCCN)CC(=O)N[C@@H](CCCN)CC(=O)N[C@H](CC(N)=O)C(C)C)C(C)C)NC(=O)C[C@@H](N)C(C)C)OC(CO)C(O)C1O` (stereo partly specified), the GI50 in the assay on ACHN renal is more than 100 µM; with SK-OV-3 ovarian, more than 100 µM; in the assay on SK-MEL-28 melanoma, more than 100 µM; in the assay on HCC-2998 colon it was more than 100 µM; with BT-549 breast, more than 100 µM; in the assay on KM12 colon it was more than 100000 nM. Further, the values for the GI50 in the assay with HL-60(TB) leukemia and in the assay with UO-31 renal were more than 100000 nM and more than 100 µM, respectively. Further, the TGI in the assay with ACHN renal, in the assay with SK-OV-3 ovarian, in the assay with SK-MEL-28 melanoma, in the assay with HCC-2998 colon, in the assay with BT-549 breast and in the assay on KM12 colon was more than 100 µM each time. For the same molecule, the TGI in the assay on HL-60(TB) leukemia and in the assay with UO-31 renal was more than 100 µM each time.
